Reference: patent publication US10059697B2, “Compounds and combinations for the treatment of HIV” (priority 2015, dated 2018)
Read-outs that look alike come from different tables or passages of the source.

Test system: HIV-1 expression in latently infected resting CD4 T cells from HIV-1 Infected Subjects on cART
Assay: microbe, parasite or virus in culture
Assay type: cell-based
Conditions: Human immunodeficiency virus 1, CD4+ T; for fold induction at 0.3 µM: 0.25 h, read-out: Fold HIV Activation, Geometric Mean, 0.3 μM Carfilzomib, 15 min pulse; for fold induction at 0.04 µM: 4 h, read-out: Fold HIV Activation, Geometric Mean, 40 nM Romidepsin, 4 h pulse; for fold induction at 0.015 µM: 24 h
Experimental: The leukapheresis product was diluted with PBS and layered over Ficoll for isolation of PBMCs. PBMCs were treated with red blood cell lysis buffer and rested overnight (10 million cells/ml) in tissue culture medium (RPMI 1640 supplemented with 10% FBS and Pen/Strep) before the isolation of resting (CD69-CD25-HLA-DR-) CD4 T cells according to the manufacturer's instructions (EasySep Human CD4 T cell Enrichment Kit modified to also deplete CD69+, CD25+, or HLA-DR+ cells). Resting CD4 T cells were cultured in four replicate wells per condition with the indicated compounds or with dimethyl sulfoxide (DMSO, vehicle control) for 6 days. To assess latency reversal that occurs in response to mitogenic activation of T cells, cells were incubated with 50 ng/ml phorbol 12-myristate 13-acetate (PMA) and 500 ng/ml ionomycin. Unless otherwise indicated, continuous exposure was used. Where pulses are indicated, at the end of the pulse, cells were spun three times at 500×g for 5 min, supernatant was decanted and replaced with an equal volume of fresh media. When in combination with another compound that was not pulsed, the compound with continuous exposure was added back at the indicated concentration. The cultures were maintained in the presence of antivirals (elvitegravir and efavirenz at 100 nM each) to prevent viral spread and amplification in order to measure the quantity of virions produced (latency reversal) by the indicated compounds. At the end of the incubation period, cell-free culture supernatants were harvested and HIV-1 RNA levels were quantified by the COBAS® AmpliPrep/COBAS® TaqMan HIV-1 Test, v2.0 (Roche). Romidepsin was used as a control. Romidepsin is a HDAC inhibitor with HIV latency reversal activity (PLoS pathogens (2015), 11(9), e1005142). The combination of a phorbol ester (PMA) and a calcium ionophore (ionomycin) was also used as a mitogenic control that has strong HIV latency reversal activity. As this combination induces global T cell proliferation and activation, systemic administration would likely induce significant toxicity. As such, PMA and ionomycin are useful strictly as a tool to monitor the amount of virus that can be produced in response to a strongly activating stimuli.

COc1cc2c(cc1NC(=O)Cn1cnc(C#N)n1)oc1ccccc12 [Compound 2]
fold induction at 1 µM (144 h, read-out: Fold HIV Activation, 1 μM Compound 2, 6 days, individual subjects, Table 2): 1.04
fold induction at 6 µM (144 h, read-out: Fold HIV Activation, 6 μM Compound 2, 6 days, individual subjects, Table 2): 4.41
fold induction at 3 µM (read-out: Fold HIV Activation, 3 μM Compound 2, individual subjects, Table 8): 3.42
fold induction at 1 µM (read-out: Fold HIV Activation, Geometric Mean, 1 μM Compound 2, geometric mean of subjects, Table 2 (n = 8)): 1.09
fold induction at 3 µM (read-out: Fold HIV Activation, Geometric Mean, 3 μM Compound 2, geometric mean of subjects, Table 2 (n = 8)): 2.76
fold induction at 3 µM (read-out: Fold HIV Activation, Geometric Mean, 3 μM Compound 2, geometric mean of subjects, Table 8 (n = 2)): 2.46
fold induction at 3 µM (read-out: Fold HIV Activation, Geometric Mean, 3 μM Compound 2, geometric mean of subjects, Table 11 (n = 3)): 2.75
fold induction at 6 µM (read-out: Fold HIV Activation, Geometric Mean, 6 μM Compound 2, geometric mean of subjects, Table 2 (n = 8)): 3.56

COC[C@H](NC(=O)c1cnc(C)s1)C(=O)N[C@@H](COC)C(=O)N[C@@H](Cc1ccccc1)C(=O)[C@@]1(C)CO1 [Oprozomib, oprozomib, reference compound]
fold induction at 0.1 µM (1 h, read-out: Fold HIV Activation, Geometric Mean, 100 nM Oprozomib, 1 hr pulse, geometric mean of subjects, Table 7 (n = 7)): 2.37

N#Cc1ncn(CC(=O)Nc2ccc3oc4ccccc4c3c2)n1 [Compound 1]
fold induction at 1 µM (read-out: Fold HIV Activation, Geometric Mean, 1 μM Compound 1, geometric mean of subjects, Table 1 (n = 10)): 1.03
fold induction at 3 µM (read-out: Fold HIV Activation, Geometric Mean, 3 μM Compound 1, geometric mean of subjects, Table 1 (n = 10)): 2.94
fold induction at 3 µM (read-out: Fold HIV Activation, Geometric Mean, 3 μM Compound 1, geometric mean of subjects, Table 5 (n = 10)): 3.12
fold induction at 3 µM (read-out: Fold HIV Activation, Geometric Mean, 3 μM Compound 1, geometric mean of subjects, Table 6 (n = 9)): 3.53
fold induction at 3 µM (read-out: Fold HIV Activation, Geometric Mean, 3 μM Compound 1, geometric mean of subjects, Table 7 (n = 7)): 5.92
fold induction at 6 µM (read-out: Fold HIV Activation, Geometric Mean, 6 μM Compound 1, geometric mean of subjects, Table 1 (n = 10)): 6.32

CC(C)C[C@H](NC(=O)[C@H](CCc1ccccc1)NC(=O)CN1CCOCC1)C(=O)N[C@@H](Cc1ccccc1)C(=O)N[C@@H](CC(C)C)C(=O)[C@@]1(C)CO1 [Carfilzomib, carfilzomib, reference compound]
fold induction at 0.3 µM (geometric mean of subjects, Table 6 (n = 9)): 1.04
fold induction at 0.3 µM (geometric mean of subjects, Table 11 (n = 3)): 0.94
fold induction at 0.3 µM (geometric mean of subjects, Table 12 (n = 3)): 0.94

C/C=C1\NC(=O)[C@H]2CSSCC/C=C/[C@H](CC(=O)N[C@H](C(C)C)C(=O)N2)OC(=O)[C@H](C(C)C)NC1=O [Romidepsin, reference compound]
fold induction at 0.04 µM (geometric mean of subjects, Table 1 (n = 10)): 2.73
fold induction at 0.04 µM (geometric mean of subjects, Table 2 (n = 8)): 3.16
fold induction at 0.04 µM (geometric mean of subjects, Table 3 (n = 8)): 3.16
fold induction at 0.04 µM (geometric mean of subjects, Table 4 (n = 5)): 2.33

N#Cc1ncn(CC(=O)Nc2ccc3c(c2)C(=O)c2ccccc2-3)n1 [Compound 3, 2-(3-cyano-1H-1,2,4-triazol-1-yl)-N-(9-oxo-9H-fluoren-2-yl)acetamide]
fold induction at 6 µM (144 h, read-out: Fold HIV Activation, 6 μM Compound 3, 6 days, individual subjects, Table 3): 3.75
fold induction at 1 µM (read-out: Fold HIV Activation, Geometric Mean, 1 μM Compound 3, geometric mean of subjects, Table 3 (n = 8)): 1.62
fold induction at 3 µM (read-out: Fold HIV Activation, Geometric Mean, 3 μM Compound 3, geometric mean of subjects, Table 3 (n = 8)): 2.31
fold induction at 3 µM (read-out: Fold HIV Activation, Geometric Mean, 3 μM Compound 3, geometric mean of subjects, Table 9 (n = 2)): 1.99
fold induction at 3 µM (read-out: Fold HIV Activation, Geometric Mean, 3 μM Compound 3, geometric mean of subjects, Table 12 (n = 3)): 2.59
fold induction at 6 µM (read-out: Fold HIV Activation, Geometric Mean, 6 μM Compound 3, geometric mean of subjects, Table 3 (n = 8)): 2.61

CC(C)C[C@H](NC(=O)[C@H](Cc1ccccc1)NC(=O)c1cnccn1)B(O)O [Bortezomib, bortezomib, reference compound]
fold induction at 0.015 µM (read-out: Fold HIV Activation, 15 nM bortezomib, 24 hr pulse, individual subjects, Table 8): 3.47
fold induction at 0.015 µM (read-out: Fold HIV Activation, 15 nM bortezomib, 24 hr pulse, individual subjects, Table 9): 3.47
fold induction at 0.015 µM (read-out: Fold HIV Activation, Geometric Mean, 15 nM Bortezomib 24 h pulse, geometric mean of subjects, Table 5 (n = 10)): 1.36
fold induction at 0.015 µM (read-out: Fold HIV Activation, Geometric Mean, 15 nM bortezomib, 24 hr pulse, geometric mean of subjects, Table 8 (n = 2)): 3.64
fold induction at 0.015 µM (read-out: Fold HIV Activation, Geometric Mean, 15 nM bortezomib, 24 hr pulse, geometric mean of subjects, Table 9 (n = 2)): 3.64
fold induction at 0.015 µM (read-out: Fold HIV Activation, Geometric Mean, 15 nM bortezomib, 24 hr pulse, geometric mean of subjects, Table 10 (n = 3)): 2.23

C#CCOc1cc2c(cc1NC(=O)Cn1cnc(C#N)n1)oc1ccccc12 [Compound 4, 2-(3-cyano-1H-1,2,4-triazol-1-yl)-N-(2-(prop-2-yn-1-yloxy)dibenzo[b,d]furan-3-yl)acetamide]
fold induction at 1 µM (144 h, read-out: Fold HIV Activation, 1 μM Compound 4, 6 days, individual subjects, Table 4): 1.09
fold induction at 6 µM (144 h, read-out: Fold HIV Activation, 6 μM Compound 4, 6 days, individual subjects, Table 4): 3.03
fold induction at 1 µM (read-out: Fold HIV Activation, Geometric Mean, 1 μM Compound 4, geometric mean of subjects, Table 4 (n = 5)): 1.09
fold induction at 3 µM (read-out: Fold HIV Activation, Geometric Mean, 3 μM Compound 4, geometric mean of subjects, Table 4 (n = 5)): 3.54
fold induction at 3 µM (read-out: Fold HIV Activation, Geometric Mean, 3 μM Compound 4, geometric mean of subjects, Table 10 (n = 3)): 3.54
fold induction at 6 µM (read-out: Fold HIV Activation, Geometric Mean, 6 μM Compound 4, geometric mean of subjects, Table 4 (n = 5)): 3.97
